Source: patent US9879243B2, “Culture medium for cell growth and transfection” (LIFE TECHNOLOGIES CORPORATION, priority 2001, dated 2018)

What was measured:
293 cells = assay: Effect of replacement compounds on the growth of 293 cells in 293 SFM without transferrin, three passages; assay type: cell-based, human; settings: third passage, control 5 μg/mL human holo-transferrin
Experimental: Semi-confluent adherent cultures of 293 Cells (ATCC, CRL 1573) are readily adapted to suspension culture. The cells are first detached with a solution of Trypsin-EDTA (0.05% Trypsin, 0.53 mM Na4EDTA), and then resuspended in conventional medium supplemented with 10% FBS to inhibit the trypsin. The resuspended cells are centrifuged at 200×g for five minutes.
The initial seeding density of the 293 cells after conversion to suspension culture is 1×10^6 cells/mL. The cells are shaken on a rotary shaker at 150 rpm in a 37° C. incubator equilibrated with 8% CO2-92% air. […] Because 293 cells have a tendency to aggregate, the cells can be vortexed vigorously for approximately 45 seconds to obtain a predominantly single cell suspension at the time of passaging and counting. After several passages in suspension culture, the maximum achievable density can be determined.
For replacement compound evaluation, 293 cells were established in 125 mL shaker flasks at an initial viable seeding density of 2×10^5 cells/mL in a final volume of 20 mL. All cultures were maintained at 37° C. in humidified air containing 8% CO2. To eliminate transferrin carry-over effects, cells were subcultured at 4 day intervals for a total of three passages. At each subculturing, cells were seeded at a density of 2×10^5 cells/mL. Positive control cultures contained 5 μg/mL human holo-transferrin while negative control cultures were established in the absence of either transferrin or replacement compound. Replacement compound stocks were prepared at 0.1M-0.2M in ddH2O and solubilized when necessary using 5N NaOH or HCl. Iron complexes were established using 0.2 M replacement compound and iron stocks mixed 1:1 (v/v) and incubated for 5-10 minutes at 22° C. All solutions containing replacement compounds were filter sterilized using a 0.22 μm Millex-GV filter prior to addition to transferrin and serum-free media.
Except where noted, replacement compounds were evaluated either alone or in combination with ferric chloride or ferrous sulfate at 25 μM, 50 μM and 100 μM. When used in combination, the replacement compounds were used in equimolar concentration with iron ions. Values in Table 4 represent the mean percentage of control growth for duplicate cultures determined at the third passage.
When added to the medium formulation uncomplexed, the replacement compound is listed alone, when added as a complex with a transition metal, the source of the transition metal is listed with the replacement compound.

Sp2/0 cells = assay: Effect of replacement compounds on the growth of Sp2/0 cells in CD Hybridoma medium without transferrin, three passages; assay type: cell-based; settings: third passage
Experimental: The ability of replacement compounds to support cellular growth in the absence of transferrin was evaluated using Sp2/0 cells maintained in CD Hybridoma medium (Invitrogen Corporation, Carlsbad, Calif.).
Stock cultures containing 5 μg/mL human holo-transferrin were prepared in CD Hybridoma medium. For replacement compound evaluation, Sp2/0 cells were established at an initial viable cell density of 0.5×10^5 cells/mL in stationary culture using 75 cm^2 tissue culture flasks in a final volume of 20 mL. All cultures were maintained at 37° C. in humidified air containing 8% CO2. To eliminate transferrin carry-over effects, cells were subcultured at the same seeding density at 4 day intervals for a total of three passages. Positive control cultures contained 5 μg/mL human holo-transferrin while negative control cultures were established in the absence of either transferrin or replacement compound. Replacement compound stocks were prepared at 0.1M-0.2M in ddH2O and solubilized when necessary using 5N NaOH or HCl. Iron complexes were established using 0.2M replacement compound and iron stocks mixed 1:1 (v/v) and incubated for 5-10 minutes at 22° C. All solutions containing replacement compounds were filter sterilized using a 0.22 μm Millex-GV filter prior to addition to transferrin and serum-free media.
Except where otherwise noted, replacement compounds were evaluated either alone or in combination with ferric chloride or ferrous sulfate at 25 μM, 50 μM and 100 μM. Values in the table represent the mean percentage of control growth for duplicate cultures determined at the third passage.
When added to the medium formulation un-complexed, the replacement compound is listed alone, when added as a complex with a transition metal, the source of the transition metal is listed with the replacement compound.

CHO cells = assay: Effect of replacement compounds on the growth of CHO cells in CD CHO medium without transferrin, three passages; assay type: cell-based, Chinese hamster; settings: third passage
Experimental: The ability of replacement compounds to support cellular growth in the absence of transferrin was evaluated using CHO cells maintained in CD CHO medium (Invitrogen Corporation, Carlsbad, Calif., the formulation of which is described in WO 98/08934). Stock cultures containing 5 μg/mL human holo-transferrin were prepared in CD CHO medium. For replacement compound evaluation, CHO cells were established in 125 mL shaker flasks at an initial viable seeding density of 1×10^5 cells/mL in a final volume of 20 mL. All cultures were maintained at 37° C. in humidified air containing 8% CO2. To eliminate transferrin carry-over effects, cells were subcultured at 4 day intervals for a total of three passages. Positive control cultures contained 5 μg/mL human holo-transferrin while negative control cultures were established in the absence of either transferrin or replacement compound. Replacement compound stocks were prepared at 0.1M-0.2M in ddH2O and solubilized when necessary using 5N NaOH or HCl. Iron complexes were established using 0.2M replacement compound and iron stocks mixed 1:1 (v/v) and incubated for 5-10 minutes at 22° C. All solutions containing replacement compounds were filter sterilized using a 0.22 μm Millex-GV filter prior to addition to transferrin and serum-free media.
Except where noted, replacement compounds were evaluated either alone or in combination with ferric chloride or ferrous sulfate at 25 μM, 50 μM and 100 μM. Values in the table represent the mean percentage of control growth for duplicate cultures determined at the third passage.
The ability of various replacement compounds to substitute for transferrin in the culture of CHO cells was determined. When added to the medium formulation un-complexed, the replacement compound is listed alone, when added as a complex with a transition metal, the source of the transition metal is listed with the metal binding compound.

[1] = 25 μM, iron equimolar where combined
[2] = 25 μM, control 5 μg/mL human holo-transferrin

Compound | mean percentage of control growth (293 cells; [1]) | mean percentage of control growth (293 cells; 50 μM) | mean percentage of control growth (293 cells; 100 μM) | mean percentage of control growth (Sp2/0 cells; [2]) | mean percentage of control growth (Sp2/0 cells; 50 μM) | mean percentage of control growth (Sp2/0 cells; 100 μM) | mean percentage of control growth (CHO cells; [2]) | mean percentage of control growth (CHO cells; 50 μM) | mean percentage of control growth (CHO cells; 100 μM)
4-Pyridoxic Acid•Ferric Chloride | 109 percentage of control growth | 85 percentage of control growth | 99 percentage of control growth | 40 percentage of control growth | 73 percentage of control growth | 76 percentage of control growth | 55 percentage of control growth | 63 percentage of control growth | 100 percentage of control growth
O=C(O)c1ccccn1.[Cl][Fe]([Cl])[Cl] [2-Pyridinecarboxylic Acid•Ferric Chloride] | – | – | – | 0 percentage of control growth | 30 percentage of control growth | 48 percentage of control growth | 88 percentage of control growth | 89 percentage of control growth | 100 percentage of control growth
[Cl][Fe]([Cl])[Cl].[O-][n+]1cccc(O)c1 [3-Hydroxypyridine-N-Oxide•Ferric Chloride] | 77 percentage of control growth | 72 percentage of control growth | 81 percentage of control growth | 55 percentage of control growth | 54 percentage of control growth | 57 percentage of control growth | 77 percentage of control growth | 66 percentage of control growth | 101 percentage of control growth
O=c1cc(CO)occ1O [Kojic Acid] | – | – | – | 0 percentage of control growth | 0 percentage of control growth | 0 percentage of control growth | 0 percentage of control growth | 0 percentage of control growth | 0 percentage of control growth
Cysteine•Ferrous Sulfate | – | – | – | 85 percentage of control growth | 79 percentage of control growth | 67 percentage of control growth | 83 percentage of control growth | 64 percentage of control growth | 45 percentage of control growth
Kojic Acid•Ferric Chloride | – | – | – | 0 percentage of control growth | 0 percentage of control growth | 0 percentage of control growth | 89 percentage of control growth | 88 percentage of control growth | 85 percentage of control growth
Nicotinic Acid-N-Oxide•Ferric Chloride | 104 percentage of control growth | 80 percentage of control growth | 79 percentage of control growth | – | – | – | 60 percentage of control growth | 84 percentage of control growth | 105 percentage of control growth
Serine Hydroxamate•Ferric Chloride | 68 percentage of control growth | 65 percentage of control growth | 51 percentage of control growth | 46 percentage of control growth | 66 percentage of control growth | 62 percentage of control growth | 106 percentage of control growth | 121 percentage of control growth | 124 percentage of control growth
Sorbitol•Ferric Chloride | – | – | – | 94 percentage of control growth | 55 percentage of control growth | 60 percentage of control growth | 100 percentage of control growth | 107 percentage of control growth | 112 percentage of control growth
